According to ChEMBL document CHEMBL4376864, “Binding Loop Substitutions in the Cyclic Peptide SFTI-1 Generate Potent and Selective Chymase Inhibitors” (J Med Chem, 2020):
One block for each compound: values may come before it. Bridge positions count the residues as written; N and C are the ends. Square brackets hold non-standard residues; d marks the D form. Peptide text beside a SMILES is read from it. * marks the point of attachment. Phe(4-NO2) = N[C@@H](Cc1ccc([N+](=O)[O-])cc1)C(=O)O; Phe(4-tBu) = CC(C)(C)c1ccc(C[C@H](N)C(=O)O)cc1; Bip = N[C@@H](Cc1ccc(-c2ccccc2)cc1)C(=O)O; pNA = O=[N+]([O-])c1ccc(N*)cc1; Nle = CCCC[C@H](N)C(=O)O

What was measured:
Cathepsin G = biological target: T1, Cathepsin G (Homo sapiens, UniProt P08311); experiment: Inhibition of human cathepsin G using Suc-AAPF-MCA as substrate at pH 7.2 and 298 K measured every 60 secs for 600 secs
T1 sequence (P08311 whole entry): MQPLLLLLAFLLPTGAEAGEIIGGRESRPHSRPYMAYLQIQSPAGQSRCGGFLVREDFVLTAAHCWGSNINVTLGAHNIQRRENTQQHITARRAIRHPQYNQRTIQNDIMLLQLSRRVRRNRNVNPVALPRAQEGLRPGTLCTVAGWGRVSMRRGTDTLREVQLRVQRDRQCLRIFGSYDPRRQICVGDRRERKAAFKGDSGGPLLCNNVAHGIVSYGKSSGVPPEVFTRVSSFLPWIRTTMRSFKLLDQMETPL

Chymotrypsin = Chymotrypsin (Homo sapiens, UniProt Q99895+P17538+P40313+Q6GPI1); experiment: Inhibition of human chymotrypsin using Suc-AAPF-MCA as substrate at pH 8 and 298 K measured every 60 secs for 600 secs; format: protein assay
Chymase [1] = biological target: T2, Chymase (Homo sapiens, UniProt P23946); experiment: Inhibition of recombinant human chymase expressed in Pichia pastoris X-33 cells using NleTDY-pNA as substrate assessed as cleavage of pNA at pH 7.2 and 298 K by spectrophotometry analysis
T2 sequence (P23946 whole entry): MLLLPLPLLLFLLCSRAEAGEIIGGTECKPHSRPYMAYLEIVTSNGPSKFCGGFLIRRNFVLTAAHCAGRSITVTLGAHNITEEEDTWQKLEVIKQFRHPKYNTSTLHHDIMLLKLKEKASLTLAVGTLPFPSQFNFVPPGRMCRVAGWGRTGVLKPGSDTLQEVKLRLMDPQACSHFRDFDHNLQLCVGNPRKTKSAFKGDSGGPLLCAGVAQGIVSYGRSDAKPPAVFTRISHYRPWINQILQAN

Kallikrein-7 = Kallikrein-7 (Homo sapiens, UniProt P49862); experiment: Inhibition of recombinant human KLK7 expressed in Pichia pastoris X-33 using KHLY-pNA as substrate at pH 8 and 298 K measured every 60 secs for 600 secs
Neutrophil elastase = biological target: T3, Neutrophil elastase (Homo sapiens, UniProt P08246); experiment: Inhibition of human neutrophil elastase using MeOSuc-AAPV-MCA as substrate at pH 7.2 and 298 K measured every 60 secs for 600 secs
T3 sequence (P08246 whole entry): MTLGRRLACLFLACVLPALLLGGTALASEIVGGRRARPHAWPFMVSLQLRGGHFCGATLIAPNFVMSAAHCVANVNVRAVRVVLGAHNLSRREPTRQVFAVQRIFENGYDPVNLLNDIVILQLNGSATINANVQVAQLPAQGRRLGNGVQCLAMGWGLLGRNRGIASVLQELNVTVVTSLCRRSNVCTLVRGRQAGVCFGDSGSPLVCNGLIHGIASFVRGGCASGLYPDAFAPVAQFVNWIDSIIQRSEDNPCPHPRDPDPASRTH

[2] = Inhibition of human cationic trypsin using Boc-VPR-MCA as substrate at pH 8 and 298 K measured every 60 secs for 600 secs
Prothrombin = Prothrombin (Homo sapiens, UniProt P00734); experiment: Inhibition of human thrombin using Boc-VPR-MCA as substrate at pH 8 and 298 K measured every 60 secs for 600 secs
Coagulation factor XII = biological target: T4, Coagulation factor XII (Homo sapiens, UniProt P00748); experiment: Inhibition of human coagulation factor 12a using Ac-QRFR-pNA as substrate at pH 8 and 298 K measured every 60 secs for 600 secs
T4 sequence (P00748 whole entry): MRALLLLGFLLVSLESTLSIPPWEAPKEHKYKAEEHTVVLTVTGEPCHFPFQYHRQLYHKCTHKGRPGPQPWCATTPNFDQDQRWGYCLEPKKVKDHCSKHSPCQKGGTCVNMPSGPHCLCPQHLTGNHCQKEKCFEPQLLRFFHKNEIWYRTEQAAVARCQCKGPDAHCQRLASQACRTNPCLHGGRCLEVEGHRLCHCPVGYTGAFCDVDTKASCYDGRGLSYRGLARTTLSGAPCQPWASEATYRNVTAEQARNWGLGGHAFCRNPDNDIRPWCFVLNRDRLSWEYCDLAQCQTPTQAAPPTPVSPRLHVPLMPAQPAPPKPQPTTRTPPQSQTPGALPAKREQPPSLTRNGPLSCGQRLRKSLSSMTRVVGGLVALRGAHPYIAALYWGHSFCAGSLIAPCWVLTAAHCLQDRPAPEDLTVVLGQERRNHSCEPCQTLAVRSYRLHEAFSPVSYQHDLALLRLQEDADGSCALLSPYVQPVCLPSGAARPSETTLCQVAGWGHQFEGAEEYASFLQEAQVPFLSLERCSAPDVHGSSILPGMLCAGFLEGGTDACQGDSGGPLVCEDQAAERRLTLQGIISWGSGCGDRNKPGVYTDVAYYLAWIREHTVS

Homo sapiens = species on record: Homo sapiens; experiment: Selectivity index, ratio of Ki for human cathepsin G using Suc-AAPF-MCA as substrate to Ki for recombinant human chymase expressed in Pichia pastoris X-33 cells using NleTDY-pNA as substrate
Chymase [3] = biological target: T2, Chymase; experiment: Substrate activity at recombinant human chymase expressed in Pichia pastoris X-33 cells assessed as Km by spectrophotometry analysis; format: ADME
Chymase [4] = biological target: T2, Chymase; experiment: Substrate activity at recombinant human chymase expressed in Pichia pastoris X-33 cells assessed as Kcat by spectrophotometry analysis; format: ADME
Chymase [5] = biological target: T2, Chymase; experiment: Substrate activity at recombinant human chymase expressed in Pichia pastoris X-33 cells assessed as ratio of Kcat/Km by spectrophotometry analysis; format: ADME

Kallikrein-7, sequence (P49862 whole entry): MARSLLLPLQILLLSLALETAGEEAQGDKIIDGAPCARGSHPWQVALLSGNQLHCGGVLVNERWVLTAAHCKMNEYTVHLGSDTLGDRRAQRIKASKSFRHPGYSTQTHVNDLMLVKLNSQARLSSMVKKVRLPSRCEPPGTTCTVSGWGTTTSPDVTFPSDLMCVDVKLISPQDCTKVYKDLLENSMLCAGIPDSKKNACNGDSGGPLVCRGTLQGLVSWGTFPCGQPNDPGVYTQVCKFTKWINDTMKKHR

Ki (Cathepsin G): 8.2 nM | Ki (Chymotrypsin): 0.88 nM
Compound: CC[C@H](C)[C@@H]1NC(=O)[C@@H]2CCCN2C(=O)[C@@H]2CCCN2C(=O)[C@H](CCC(=O)O)NC(=O)[C@H](CO)NC(=O)[C@H](Cc2ccc(O)cc2)NC(=O)[C@H]([C@@H](C)O)NC(=O)[C@@H]2CSSC[C@H](NC1=O)C(=O)N[C@@H](Cc1ccccc1)C(=O)N1CCC[C@H]1C(=O)N[C@@H](CC(=O)O)C(=O)NCC(=O)N[C@@H](CCCNC(=N)N)C(=O)N2 (cyclo(CFPDGRCTYSEPPI); disulfide 1-7)

Ki (Chymase [1]): 54 nM | Ki (Cathepsin G): 5200 nM | Ki (Chymotrypsin): 920 nM | IC50 (Kallikrein-7): > 10000 nM | IC50 (Neutrophil elastase): > 10000 nM | IC50 [2]: > 10000 nM | IC50 (Prothrombin): > 10000 nM | IC50 (Coagulation factor XII): > 10000 nM
Compound: N=C(N)NCCC[C@@H]1NC(=O)CNC(=O)[C@H](CC(=O)O)NC(=O)[C@@H]2CCCN2C(=O)[C@H](Cc2ccccc2)NC(=O)[C@@H]2CSSC[C@H](NC1=O)C(=O)N[C@@H](CCC(N)=O)C(=O)N[C@@H](Cc1ccc([N+](=O)[O-])cc1)C(=O)N[C@@H](CO)C(=O)N[C@@H](CCC(=O)O)C(=O)N1CCC[C@H]1C(=O)N1CCC[C@H]1C(=O)N[C@@H](CCC(=O)O)C(=O)N2 (cyclo(CFPDGRCQ[Phe(4-NO2)]SEPPE); disulfide 1-7)
Ratio Ki (Homo sapiens): 96

Km (Chymase [3]): 370 µM | Kcat (Chymase [4]): 14 s⁻¹ | Kcat/Km (Chymase [5]): 3.8 ×10⁴ /M/s
Compound: C[C@@H](O)[C@H](NC(=O)[C@@H](N)Cc1ccccc1)C(=O)N[C@@H](CC(=O)O)C(=O)N[C@@H](Cc1ccc(O)cc1)C(=O)Nc1ccc([N+](=O)[O-])cc1 (H-FTDY-pNA)

Ki (Cathepsin G): 0.26 nM | Ki (Chymotrypsin): 150 nM
Compound: CC[C@H](C)[C@@H]1NC(=O)[C@@H]2CCCN2C(=O)[C@@H]2CCCN2C(=O)[C@H](CCC(=O)O)NC(=O)[C@H](CO)NC(=O)[C@H](Cc2ccc(O)cc2)NC(=O)[C@H](CCC(N)=O)NC(=O)[C@@H]2CSSC[C@H](NC1=O)C(=O)N[C@@H](Cc1ccccc1)C(=O)N1CCC[C@H]1C(=O)N[C@@H](CC(=O)O)C(=O)NCC(=O)N[C@@H](CCCNC(=N)N)C(=O)N2 (cyclo(CFPDGRCQYSEPPI); disulfide 1-7)

Ki (Cathepsin G): 14 nM | Ki (Chymotrypsin): 11 nM
Compound: C[C@@H](O)[C@@H]1NC(=O)[C@@H]2CSSC[C@H](NC(=O)[C@H](CCC(=O)O)NC(=O)[C@@H]3CCCN3C(=O)[C@@H]3CCCN3C(=O)[C@H](CCC(=O)O)NC(=O)[C@H](CO)NC(=O)[C@H](Cc3ccc(O)cc3)NC1=O)C(=O)N[C@@H](Cc1ccccc1)C(=O)N1CCC[C@H]1C(=O)N[C@@H](CC(=O)O)C(=O)NCC(=O)N[C@@H](CCCNC(=N)N)C(=O)N2 (cyclo(CFPDGRCTYSEPPE); disulfide 1-7)

IC50 (Chymase [1]): > 10000 nM
Compound: CC(C)(C)c1ccc(C[C@@H]2NC(=O)[C@H](CCC(N)=O)NC(=O)[C@@H]3CSSC[C@H](NC(=O)[C@H](CCC(=O)O)NC(=O)[C@@H]4CCCN4C(=O)[C@@H]4CCCN4C(=O)[C@H](CCC(=O)O)NC(=O)[C@H](CO)NC2=O)C(=O)N[C@@H](Cc2ccccc2)C(=O)N2CCC[C@H]2C(=O)N[C@@H](CC(=O)O)C(=O)NCC(=O)N[C@@H](CCCNC(=N)N)C(=O)N3)cc1 (cyclo(CFPDGRCQ[Phe(4-tBu)]SEPPE); disulfide 1-7)

IC50 (Chymase [1]): > 5000 nM
Compound: CC[C@H](C)[C@@H]1NC(=O)[C@@H]2CCCN2C(=O)[C@@H]2CCCN2C(=O)[C@H]([C@@H](C)CC)NC(=O)[C@H](CO)NC(=O)[C@H](CCCCN)NC(=O)[C@H]([C@@H](C)O)NC(=O)[C@@H]2CSSC[C@H](NC1=O)C(=O)N[C@@H](Cc1ccccc1)C(=O)N1CCC[C@H]1C(=O)N[C@@H](CC(=O)O)C(=O)NCC(=O)N[C@@H](CCCNC(=N)N)C(=O)N2

Ki (Cathepsin G): < 0.1 nM | Ki (Chymotrypsin): 0.42 nM
Compound: CC[C@H](C)[C@@H]1NC(=O)[C@@H]2CCCN2C(=O)[C@@H]2CCCN2C(=O)[C@H](CCC(=O)O)NC(=O)[C@H](CO)NC(=O)[C@H](Cc2ccc(O)cc2)NC(=O)[C@H](C)NC(=O)[C@@H]2CSSC[C@H](NC1=O)C(=O)N[C@@H](Cc1ccccc1)C(=O)N1CCC[C@H]1C(=O)N[C@@H](CC(=O)O)C(=O)NCC(=O)N[C@@H](Cc1ccccc1)C(=O)N2 (cyclo(AYSEPPICFPDGFC); disulfide 8-14)

Km (Chymase [3]): 550 µM | Kcat (Chymase [4]): 22 s⁻¹ | Kcat/Km (Chymase [5]): 4 ×10⁴ /M/s
Compound: CCCC[C@H](N)C(=O)N[C@H](C(=O)N[C@@H](CC(=O)O)C(=O)N[C@@H](Cc1ccc(O)cc1)C(=O)Nc1ccc([N+](=O)[O-])cc1)[C@@H](C)O (H-[Nle]TDY-pNA)

IC50 (Chymase [1]): > 5000 nM
Compound: CC[C@H](C)[C@@H]1NC(=O)[C@@H]2CCCN2C(=O)[C@@H]2CCCN2C(=O)[C@H]([C@@H](C)CC)NC(=O)[C@H](CO)NC(=O)[C@H](Cc2ccc(O)cc2)NC(=O)[C@H](CC(=O)O)NC(=O)[C@@H]2CSSC[C@H](NC1=O)C(=O)N[C@@H](Cc1ccccc1)C(=O)N1CCC[C@H]1C(=O)N[C@@H](CC(=O)O)C(=O)NCC(=O)N[C@@H](Cc1ccccc1)C(=O)N2 (cyclo(CDYSIPPICFPDGF); disulfide 1-9)

Km (Chymase [3]): 530 µM | Kcat (Chymase [4]): 18 s⁻¹ | Kcat/Km (Chymase [5]): 3.4 ×10⁴ /M/s
Compound: C[C@@H](O)[C@H](NC(=O)[C@@H](NC(=O)[C@@H](N)CCCNC(=N)N)[C@@H](C)O)C(=O)N[C@@H](Cc1ccc(O)cc1)C(=O)Nc1ccc([N+](=O)[O-])cc1 (H-RTTY-pNA)

Km (Chymase [3]): 410 µM | Kcat (Chymase [4]): 13 s⁻¹ | Kcat/Km (Chymase [5]): 3.2 ×10⁴ /M/s
Compound: C[C@@H](O)[C@H](NC(=O)[C@H](CCC(=O)O)NC(=O)[C@@H](N)CCCNC(=N)N)C(=O)N[C@@H](Cc1ccc(O)cc1)C(=O)Nc1ccc([N+](=O)[O-])cc1 (H-RETY-pNA)

IC50 (Chymase [1]): > 5000 nM
Compound: CCCC[C@@H]1NC(=O)CNC(=O)[C@H](CC(=O)O)NC(=O)[C@@H]2CCCN2C(=O)[C@H](Cc2ccccc2)NC(=O)[C@@H]2CSSC[C@H](NC1=O)C(=O)N[C@@H](CC(=O)O)C(=O)N[C@@H](Cc1ccc(O)cc1)C(=O)N[C@@H](CO)C(=O)N[C@@H]([C@@H](C)CC)C(=O)N1CCC[C@H]1C(=O)N1CCC[C@H]1C(=O)N[C@@H]([C@@H](C)CC)C(=O)N2 (cyclo(CDYSIPPICFPDG[Nle]); disulfide 1-9)

Ki (Cathepsin G): 7.4 nM | Ki (Chymotrypsin): 1.5 nM
Compound: CC[C@H](C)[C@@H]1NC(=O)[C@@H]2CCCN2C(=O)[C@@H]2CCCN2C(=O)[C@H](Cc2ccc(-c3ccccc3)cc2)NC(=O)[C@H](CO)NC(=O)[C@H](Cc2ccc(O)cc2)NC(=O)[C@H](C)NC(=O)[C@@H]2CSSC[C@H](NC1=O)C(=O)N[C@@H](Cc1ccccc1)C(=O)N1CCC[C@H]1C(=O)N[C@@H](CC(=O)O)C(=O)NCC(=O)N[C@@H](Cc1ccccc1)C(=O)N2 (cyclo(AYS[Bip]PPICFPDGFC); disulfide 8-14)
